In patent US20210002182A1, “NOVEL PHOSPHATIC FERTILIZERS BASED ON ALKANOLAMINE SALTS OF PHOSPHORIC ACID” (Yara UK Limited, priority 2017, published 2021):

Assays:
[1] = 75 weight % phosphoric acid; cited from earlier work
[2] = system: radish test crop; experiment: Glasshouse crop safety trial, foliar spraying; assay type: in vivo; settings: foliar spraying at 5 leaf stage, 3.4 kg P2O5 per ha in 200 litres/ha water, assessed seven days after spraying
Experimental: Glasshouse trials were carried out in order to assess crop safety of the composition described above. The trials were carried out using a radish test crop grown in pots in a sand medium and fed via a nutrient solution. A randomised block design using 4 replicates was employed. The product was applied by foliar spraying at the 5 leaf growth stage using a rate equivalent to 10 kg/ha in 200 litres/ha water (equating to an input of 3.4 kg P2O5 per ha). […] The crop was assessed for symptoms of phytotoxicity seven days after spraying.

Compound: O=P(O)(O)O [phosphoric acid]
- Freezing point [1]: −20 °C
- Symptoms of phytotoxicity (crop damage) [2]: signs of crop damage (leaf burn)
